For data set [1], the system named is human pluripotent stem cells. Nature of the data set: Accelerated neural induction of hPSCs/hiPSCs into neuroepithelium, 24 hours (NANOG/SOX2/SOX1/PAX6 immunostaining). The class given is cell-based. The settings on record: for Effect on NE formation of inhibitors of FGF signaling cascade components: standard neuralizing conditions. The protocol:
Prior to passaging, a recombinant human vitronectin stock solution (500 ug/mL, Peprotech AF-140-09, Rocky Hill, N.J., USA) was diluted 1:100 in DPBS+/+ (ThermoFisher Scientific cat #14040-133, Waltham, Mass., USA) and used to coat 9.6 cm^2 tissue-culture treated wells (Fischer Scientific, Hampton, N.H.) for one hour at room temperature. hPSCs were washed once with 1 mL hypertonic citrate buffer (11) or equivalent and then incubated with 1 mL hypertonic citrate buffer (11) at 37° C. for 6 minutes until colony detachment occurred. The colonies were collected and processed into 25-50 cell fragments by trituration and the dissociation quenched with 5 mL Essential 6 Medium (ThermoFisher Scientific A1516401, Waltham, Mass., USA). Suspensions were collected into 15 mL conical tubes and centrifuged for 1 minute at 200×G. Supernatants were aspirated and pellets resuspended into 1.2 mL Essential 6 Medium (ThermoFisher Scientific A2858501, Waltham, Mass., USA) assuming a 1:6 split ratio. 0.2 mL cultures were seeded onto rhVTN-coated wells containing Essential 8 Medium. Cultures were maintained in Essential 8 Medium with daily media changes and passaged every 3 days.
Differentiation medium consisting of Essential 6 supplemented with LDN-193189 HCl (500 nM, Selleckchem cat #S7507, Houston, Tex. USA) and BGJ398 (100 nM Selleckchem cat #S2183 Houston, Tex. USA) was combined and distributed 2 mL per vitronectin-coated well of a 6-well plate. hPSCs were dissociated into small clumps (25-50 cells per clump) as indicated above. 0.2 to 0.4 mL cultures were seeded onto rhVTN-coated wells containing differentiation medium.
Conditions were assayed in which the ERK pathway was inhibited at both receptor and downstream intracellular effector levels. The VEGFR2/FGFR2 inhibitor SU5402 was compounded with previously known neurulation conditions containing the ALK2/3 receptor antagonist LDN 193189 and the ALK 4/5/7 receptor antagonist A8-30-1 to observe their combined effect on undifferentiated pluripotent stem cells.
24-hour differentiating cultures were analyzed prior to cell death for various transcription factors associated with pluripotency and NE formation. […] SOX2, common to both hPSCs and NE, was maintained.

The next data set concerns day-2 neuromesoderm. Kind of data set: Conversion of day-2 neuromesoderm into spinal neuroepithelium. The data set is classed as cell-based, human. The following applies: day 3. On the procedure: Day-one Neuromesoderm progenitors were exposed to differentiation medium consisting of Essential 6 supplemented with CHIR 99021 (3 uM, Tocris cat #4423, Bristol UK) and FGF-Basic TS™ (20 ng/mL, Humanzyme cat #HZ-1286, Chicago, Ill. USA) for 24 hours. This day-two neuromesoderm was further exposed to differentiation medium consisting of Essential 6 supplemented with BGJ398 (100 nM Selleckchem cat #52183 Houston, Tex. USA) to create a day-three population of PAX3/SOX1/HOXB4-positive neuroepithelial cells.
It has been shown that retinoic acid signaling is needed to convert neuromesoderm into spinal cord neuroepithelium. […] It has been shown that retinoids exert multiple simultaneous functions in the developing spinal cord, inhibiting FGF signaling, while activating both WNT and SHH signaling. […] This spinal neuroepithelium was further characterized with respect to additional markers and discovered that it was partially PAX3-positive, an early spinal neural plate marker. The day-3 conditions were optimized to maximize PAX3 and it was discovered that moderate WNT signaling was needed in addition to FGF inhibition to derive a pure population of cervical neural plate epithelium homogeneously expression PAX3 (FIG. 18). To investigate the dorso-ventral patterning competency of these retinoid-independent spinal neuroepithelial cells, the day-3 cultures were exposed to SHH signaling. […]

Data set [2] has as its system human pluripotent stem cells. Kind of data set: Accelerated production of neuromesoderm progenitors directly from hPSCs, 24 hours (SOX2/T immunophenotype). The class given is cell-based. The protocol: Differentiation medium consisting of Essential 6 supplemented with LDN-193189 HCl (500 nM, Selleckchem cat #S7507, Houston, Tex. USA), BGJ398 (100 nM Selleckchem cat #S2183 Houston, and TX USA), and CHIR 99021 (3 uM, Tocris cat #4423, Bristol UK) was combined and distributed 2 mL per vitronectin-coated well of a 6-well plate. hPSCs were dissociated into small clumps (25-50 cells per clump) as indicated above. 0.2 to 0.4 mL cultures were seeded onto rhVTN-coated wells containing differentiation medium.
The previous scenario utilized a neuroectoderm intermediate for the generation of neuromesoderm. Because it has been shown that neuromesoderm can be derived directly from hPSCs, high levels of WNT signaling were incorporated into the day-1 neuroectoderm conditions to investigate whether this could induce neuromesoderm directly.

The subject of another data set is day-1 neuroectoderm. Kind of data set: Caudalization of day-1 neuroectoderm into neuromesoderm. The data set is classed as cell-based, human. The following applies: by day 2. The protocol: Controversy currently exists surrounding the origin of the most caudal segments of the central nervous system that include the spinal cord. In vitro conditions for generating spinal cord tissue have traditionally relied upon the formation of anterior neural plate expressing SOX1+/FOXG1+/OTX2+/PAX5−/HOXB4− that is caudalized with factors such as FGF, WNT, and retinoic acid to create SOX1+/FOXG1−/OTX2−/PAX5−/HOXB4+ positive cervical spinal cord tissue. […] An additional 24 hours of WNT/FGF signaling converted this population into SOX1−/SOX2+/T+/TBX6−/HOXB4+ cervical-level neuromesoderm (FIG. 13).

The mark [3] stands for this setting: 24-hour cultures, SU5402 with LDN 193189 and A8-30-1.

Each structure is given as a SMILES string. Entries after “also recorded” stand apart in the source; their conditions may differ.

Turning to `CCN1CCN(c2ccc(Nc3cc(N(C)C(=O)Nc4c(Cl)c(OC)cc(OC)c4Cl)ncn3)cc2)CC1` [BGJ398, 3-(2,6-dichloro-3,5-dimethoxyphenyl)-1-(6-(4-(4-ethylpiperazin-1-yl)-phenylamino)pyrimidin-4-yl)-1-methylurea], the “Induction of SOX1-immunoreactivity when substituted for SU5402 in the inhibitor cocktail” value in data set [1] (24 hours, panel of hPSC lines) is listed as “matches or exceeds marker expression levels seen when using SU5402”. Besides, the “Population created from day-2 neuromesoderm” value with day-2 neuromesoderm is recorded as “created a pure population of spinal neuroepithelium lacking evidence of neuromesoderm or somite tissues”.

Turning to `Cc1c[nH]c(-c2cnc(NCCNc3ccc(C#N)cn3)nc2-c2ccc(Cl)cc2Cl)n1` [CHIR99021], the “HOXB4 expression of day-2 cultures” value in data set [2] (additional 24 hours incubation after day-1 neuromesoderm induction) is “upregulated the HOXB4 transcription factor”. For the same compound, the “Population induced from day-1 neuroectoderm by high WNT signaling” value with day-1 neuroectoderm is “sufficient to induce a SOX1−/SOX2+/T+/TBX6−/HOXB4− population by day 2”.

In the case of `O=C(NOC[C@H](O)CO)c1ccc(F)c(F)c1Nc1ccc(I)cc1F` [PD0325901, N-[(2R)-2,3-Dihydroxypropoxy]-3,4-difluoro-2-[(2-fluoro-4-iodophenyl)amino]-benzamide], the “Effect on NE formation of inhibitors of FGF signaling cascade components” value in data set [1] was “performed similarly to BGJ398; also recorded: substitutes for SU5402”. Also, the “Replacement of BGJ398 in neural induction” value in data set [1] (with LDN 193189) is given as “fully replaces use of BGJ398”. Besides, the “Replacement of BGJ398 in neuromesoderm formation” value in data set [2] (with LDN193189 and CHIR99021) is recorded as “fully replaces use of BGJ398”.

As for `COc1nccc(-c2c(-c3ccc(F)cc3)ncn2C2CCC(O)CC2)n1` (stereo not drawn) [SB239063], the “Effect on NE formation of inhibitors of FGF signaling cascade components” value in data set [1] is reported as “had no effect”.

For `Cc1c[nH]c(C=C2C(=O)Nc3ccccc32)c1CCC(=O)O` [SU5402, 3-[4-Methyl-2-(2-oxo-1,2-dihydro-indol-3-ylidenemethyl)-1H-pyrrol-3-yl]-propionic acid], in data set [1] (24-hour cultures, SU5402 compounded with LDN 193189 and A8-30-1), the “SOX1-positivity (cells)” value is reported as “greater than 90%”. In addition, in data set [1] (setting [3]), the “NANOG positivity compared to undifferentiated control cultures” value is reported as “reduced NANOG positivity” and the SOX2 expression entry was “maintained”. Besides, the “Outcome of continued culture” value in data set [1] (additional 48 hours, SU5402 with LDN 193189 and A8-30-1, data not shown) was “resulted in cell death”.

Values taken from patent publication US11702629B2, “Acceleration of stem cell differentiation” (Regents of the University of Minnesota, priority 2017, dated 2023).
